This is an account of results in US5049372A, “Anticancer activities in a host by increasing blood and plasma adenosine 5'-triphosphate (ATP) levels” (priority 1988, dated 1991).

The test system of series [1] is CT26 colon adenocarcinoma. The experiment in a line: Growth inhibition of footpad CT26 colon adenocarcinoma in CB6F1 mice, second series (FIGS. 2 and 3). Format: in vivo, mouse. Particulars: for Inhibition of tumor growth, schedule ending before inoculation: 12 consecutive days, ending one day before tumor inoculation; for Anticancer activities against established footpad CT26 colon adenocarcinoma: CB6F1 mice, in words; for Deaths before stated day after tumor inoculation: FIG. 2 experiment, palpable CT26 tumors, 10 animals per group; for Inhibition of growth of palpable CT26 tumors (in words): daily i.p. in 2.2 ml saline, pH 6.2, 12 days, starting after tumors palpable, equimolar amounts. As to the method:
A further series of tests are conducted whereby tumors are inoculated by injections of 2.5×10^5 CT26 cells (over 90% viability) in 50 μl of phosphate-buffered saline into the right hind footpad of CB6F1 mice. The treatments were initiated at a variety of times after inoculation of the tumors. The injection schedules started either 1 or 5 days after tumor inoculation when none of the tumors are palpable or when the tumors are clearly palpable (average calculated weight of 100 mg), which occur in 100% of the inoculated mice after 8-11 days. Mice are randomized, divided into groups, and injected daily with 2.2 ml of saline, adenosine, AMP, or ATP (compounds are in sterile saline solutions at concentrations of 25 mM with AMP and ATP solutions adjusted to pH 6.2). Injections are administered intraperitoneally with 30 gauge needles and the mice are lightly anesthetized with […]. The mice are weighed and tumor sizes measured before the start of the treatment schedule and every three days during and after the treatment schedule. These determinations are performed before injections during the treatment period.
In particular, see FIG. 2. FIG. 2 illustrates inhibition of tumor growth (---) and host weight loss (-) in tumor-bearing mice by treatment with adenine nucleotides. Mice (CB6F1, 8 week old males) bearing palpable CT26 footpad tumors (on day 9 after tumor inoculation) are treated with saline (.smallcircle.), adenosine (o), AMP (Δ), or ATP (.quadrature.) as described herein. An untreated group is also included (x). Arrows indicate days of injection.
The magnitude of the antitumor activities of AMP and ATP depends to a small extent on the pH of the solution administered intraperitoneally. This property is probably related to the number of negative charges on the phosphate groups (the pKa of the secondary phosphate is around 6.6). AMP and especially ATP have some buffering capacity, and at a pH below 6.6 they carry a smaller net charge than at a physiological pH. The lower charge of these molecules enhances the initial (first hour) transport of AMP and ATP across the peritoneal membrane and into the systemic circulation (see Torres, et al., 1978, Pharmacol., 17, 330-340). […] The treatment schedule of palpable CT26 tumors which is illustrated in FIG. 2 consistently yields 10-20% of "cures". These mice remain tumor-free for at least two months.
FIG. 3 further illustrates inhibition of host weight loss in tumor-bearing animals by treatment with adenine nucleotides. Mice (CB6F1, males, 7 weeks old, in A, 10 weeks old in B, […]) with saline (.smallcircle.), adenosine (o), AMP (Δ), or ATP (.quadrature.) are initiated 1 day (A), 5 days (B), or 9 days after tumor inoculation (when all the tumors were palpable) (C). Arrows indicate days of injection. Experimental procedures were outlined in the text.

The subject of series [2] is CT26 tumors. Description: Arrest of growth of CT26 tumors in CB6F1 mice (Table 2). Format: in vivo, mouse. As to conditions: experiment 1; CB6F1, 10 F; 0.5 × 10^4 cells; 5 weeks; 1 ml of 50 mM i.p. How it is done: (§1) The tumor cell lines employed were CT26, a mouse undifferentiated, aggressive colon carcinoma, and CAPAN-1, a well-differentiated human pancreatic adenocarcinoma. […] The cells are shown to be free of Mycoplasma contamination. Cells are cultured at 37° C. in a humidified atmosphere of 5% CO2 /95% air in MEM supplemented with antibiotics (100 units of penicillin per ml and 100 μg streptomycin per ml), L-glutamine (2 mM), non-essential amino acids (0.1 mM), sodium pyruvate (1 mM), and 10% fetal bovine serum.
In the tests, females and males CB6F1 mice (a standard F1 hybrid of BALB/C and C57BL/6) obtained from Jackson Laboratories, Bar Harbor, Maine and athymic outbred NCr nu/nu mice (males and females) from the Department of Radiation Medicine, Massachusetts General Hospital, Boston, Mass. 02114 are used. All the mice are kept for at least two weeks before inoculation of the tumors and the start of treatment and are 7-9 weeks old (CB6F1) or 6-7 weeks old (athymic nu/nu) at the start of the procedure. Animals weigh 20-25 g (females) or 23-28 g (males), are housed 5-12 per cage, and have ad libitum access to food and water. […]
Injections are administered with 30 gauge needles and the mice are lightly anesthetized with ether. […] After the tumors become palpable, tumor sizes are determined every three days. […]

Series [3] relates to CAPAN-1 xenografts. The experiment in a line: Arrest of growth of CAPAN-1 xenografts in athymic nu/nu mice (Table 2). It counts as in vivo, human. As to conditions: 1 ml of 50 mM i.p. As to the method:
as §1
In the tests, females and males CB6F1 mice (a standard F1 hybrid of BALB/C and C57BL/6) obtained from Jackson Laboratories, Bar Harbor, Maine and athymic outbred NCr nu/nu mice (males and females) from the Department of Radiation Medicine, Massachusetts General Hospital, Boston, Mass. 02114 are used. All the mice are kept for at least two weeks before inoculation of the tumors and the start of treatment and are 7-9 weeks old (CB6F1) or 6-7 weeks old (athymic nu/nu) at the start of the procedure. Animals weigh 20-25 g (females) or 23-28 g (males), are housed 5-12 per cage, and have ad libitum access to food and water.
(§2) Tumor cells are removed from subconfluent cultures by a mild trypsin-EDTA treatment, the cell pellet is washed once with MEM without serum and the cells are suspended at the desired cell numbers in PBS (phosphate-bufferedsaline, 8 g NaCl, 0.2 g KCl, 1.15 g Na2 HPO4.7H2 O, and 0.2 g KH2 PO4 per liter). Cell suspensions are shown to be at least 90% viable by trypan blue exclusion. Mice are injected subcutaneously in the right hind footpad with tumor cells suspended in 50 μl of PBS. The regular protocol (unless otherwise stated) consists of daily i.p. injections of 1 ml of 0.85% NaCl solution or 1 ml of 50 mM of AMP, ADP, or ATP in 0.85% NaCl (from stock solutions adjusted to pH 6.2) starting one day after tumor inoculation and given for ten consecutive days.
(§3) Injections are administered with 30 gauge needles and the mice are lightly anesthetized with ether. The mice are weighed before the start of treatment and once a week during and after treatment. After the tumors become palpable, tumor sizes are determined every three days. The animals are sacrificed, tumors are excised and weighed before they reach 10% of the animals' weight.
The effects of AMP, ADP, and ATP on human tumor xenografts in nude mice were evaluated utilizing the pancreatic ductal adenocarcinoma CAPAN-1 (see Kyriazis AP, Kyriazis AA, Scarpelli DG, Fogh J, Rao SM, Lepera R., "Human Pancreatic Adenocarcinoma Line CAPAN-1 in Tissue Culture and the Nude Mouse", Am. J. Pathol., 1982, 106, 250-260).
Treatment schedules consist of single daily i.p. injections for 10 consecutive days, starting one day after tumor inoculation. Tumor burden is relatively low (0.5-1×10^5 cells implanted) and tumor growth is slow (tumors became palpable 4-6 weeks after inoculation).

The nature of series [4]: Host toxicity (deaths, body weight) in treated mice. It counts as in vivo, mouse. Particulars: for Deaths: i.p. injections of adenine nucleotides. As to the method:
as §2, §3

Where [5] appears, read: experiment 4, 11 F, 0.5 × 10^5 cells, 10 weeks.
The mark [6] stands for this setting: experiment 5, 10 F, 0.5 × 10^5 cells, 9 weeks.

For the compound `Nc1ncnc2c1ncn2[C@@H]1O[C@H](COP(=O)(O)O)[C@@H](O)[C@H]1O` [AMP, adenosine 5'-monophosphate], in series [1], the “Inhibition of tumor growth, schedule ending before inoculation” value was “No inhibition of tumor growth”; the “Anticancer activities against established footpad CT26 colon adenocarcinoma” value is listed as “exhibit significant anticancer activities”; the “Deaths before stated day after tumor inoculation” value is “No deaths occurred before day 22”; the “Inhibition of growth of palpable CT26 tumors (in words)” value was “significantly inhibit the growth of this fast-growing tumor”. Moreover, the “Inhibition of tumor growth relative to ATP” value in series [1] (treatment initiated one day after tumor inoculation) is reported as “as effective as ATP in inhibiting tumor growth”. Moreover, in series [2], the Arrested tumors/implanted tumors is reported as 2/10. In addition, the Arrested tumors/implanted tumors in series [3] (setting [5]) is listed as 7/11. Also, the Arrested tumors/implanted tumors in series [3] (setting [6]) is 6/10. Further, in series [4] (host animals), the “Side-effects relative to ATP” value is “less side-effects than ATP”. Further, the Deaths entry in series [4] is “did not cause any deaths”.
Consider `Nc1ncnc2c1ncn2[C@@H]1O[C@H](COP(=O)(O)OP(=O)(O)OP(=O)(O)O)[C@@H](O)[C@H]1O` [ATP, adenosine 5'-triphosphate], for which, in series [1], the “Inhibition of tumor growth, schedule ending before inoculation” value is listed as “No inhibition of tumor growth”. The “Anticancer activities against established footpad CT26 colon adenocarcinoma” value in series [1] is “exhibit significant anticancer activities”. For the same compound, the “Deaths before stated day after tumor inoculation” value in series [1] is “No deaths occurred before day 22”. Also, the “Inhibition of tumor growth, palpable tumors, relative to AMP” value in series [1] (applied to palpable tumors (FIG. 2)) is reported as “more pronounced than that obtained with AMP”. In series [1], the “Inhibition of growth of palpable CT26 tumors (in words)” value is reported as “significantly inhibit the growth of this fast-growing tumor”. In addition, the Arrested tumors/implanted tumors in series [2] is reported as 4/10; in series [3] (experiment 2, 5 F, 1 × 10^5 cells, 7 weeks), 4/5; in series [3] (experiment 3, 5 F, 1 × 10^5 cells, 6 weeks) it was 3/5; in series [3] (setting [5]), 8/11; in series [3] (setting [6]), 8/10. Moreover, the Deaths entry in series [4] is recorded as “Occasionally, an animal treated with ATP or ADP would die a few hours after injection”.
